Measurements taken from patent US12338237B2, “Derivatives having 1,2,3,4-tetrahydronaphthalene moiety or pharmaceutically acceptable salt thereof and pharmaceutical compositions comprising the same” (YUHAN CORPORATION, priority 2019, dated 2025).
pIC50: −log10 of the molar value.

Assays:
[1] = test system: GM1 production; assay: cells; format: cell-based; details: Homo sapiens, Jurkat, 72 h
[2] = biological target: glucosylceramide synthase (GCS) (Homo sapiens (Human), UniProt Q16739); assay: Evaluation of inhibitory activities against GCS (enzyme reaction with A549 cell lysate, NBD C6-ceramide, HPLC fluorescence); format: biochemical; details: GCS activity in A549 cell lysate, 37° C. for 90 minutes
Chain of glucosylceramide synthase (GCS) (Q16739 whole entry, looked up): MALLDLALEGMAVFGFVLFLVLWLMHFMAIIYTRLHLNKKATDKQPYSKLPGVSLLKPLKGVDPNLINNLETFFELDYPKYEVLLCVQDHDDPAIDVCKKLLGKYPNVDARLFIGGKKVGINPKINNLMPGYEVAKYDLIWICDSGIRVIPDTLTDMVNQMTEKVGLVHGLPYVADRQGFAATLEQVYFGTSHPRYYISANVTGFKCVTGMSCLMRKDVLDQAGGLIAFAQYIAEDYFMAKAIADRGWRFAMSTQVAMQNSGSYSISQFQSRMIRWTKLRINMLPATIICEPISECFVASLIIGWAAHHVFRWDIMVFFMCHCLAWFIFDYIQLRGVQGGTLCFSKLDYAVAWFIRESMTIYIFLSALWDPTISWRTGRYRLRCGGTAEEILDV
Method: Ibiglustat, known as a GCS inhibitor, was used as a control.
After the cells attached to the culture dish were washed with phosphate buffered saline (PBS), the cells were scraped off with a cell scraper and then centrifuged (4000 rpm, 3 min, 4° C.) to collect the cells in a 50 ml tube. The cell pellets were suspended in a lysis buffer (50 mM HEPES, pH 7.3, containing 1× the protease/phosphatase inhibitor cocktail), lysed by sonication, and then the lysate was centrifuged (13000 rpm, 10 min, 4° C.). The obtained supernatant was used for the quantitative analysis of proteins. The amount of proteins was measured using the BCA protein assay kit, using bovine serum albumin as a standard.
Enzymatic reactions were initiated by sequentially adding the following reaction materials to a 96 deep-well plate. Thereafter, the enzymatic reactions were performed at 37° C. for 90 minutes.
The enzymatic reactions were stopped by adding 100 μl of chloroform/methanol (2:1, v/v). After vortexing for 15 seconds, each mixture was centrifuged (4000 rpm, 10 min, 18° C.). The lower layer (50 μl) was transferred to a new 96 deep-well plate and dried with a reduced concentrator.
Data analysis was performed by the following equations. % Area (Sample)=Area (GlcCer)/[Area (Cer)+Area (GlcCer)]×100 % GCS activity=[Area(Sample)−Area(ibiglustat)]/[Area(DMSO)−Area(ibiglustat)]×100

O=C(NC1CCCc2ccc(-c3cc(F)ccc3F)cc21)O[C@@H]1CN2CCC1CC2 (stereo partly drawn) [Example 67, (S)-quinuclidin-3-yl (7-(2,5-difluorophenyl)-1,2,3,4-tetrahydronaphthalen-1-yl)carbamate]
pIC50 [1]: 7.42
pIC50 [2]: 8.14

O=C(NC1CCCc2ccc(-c3cc(F)cc(F)c3)cc21)O[C@@H]1CN2CCC1CC2 (stereo partly drawn) [Example 68, (S)-quinuclidin-3-yl (7-(3,5-difluorophenyl)-1,2,3,4-tetrahydronaphthalen-1-yl)carbamate]
pIC50 [1]: 6.56
pIC50 [2]: 7.20

O=C(NC1CCCc2ccc(-c3ccc(F)c(F)c3F)cc21)O[C@@H]1CN2CCC1CC2 (stereo partly drawn) [Example 69, (S)-quinuclidin-3-yl (7-(2,3,4-trifluorophenyl)-1,2,3,4-tetrahydronaphthalen-1-yl)carbamate]
pIC50 [1]: 6.66
pIC50 [2]: 7.39

O=C(NC1CCCc2ccc(-c3ccc(Cl)c(Cl)c3)cc21)O[C@@H]1CN2CCC1CC2 (stereo partly drawn) [Example 70, (S)-quinuclidin-3-yl (7-(3,4-dichlorophenyl)-1,2,3,4-tetrahydronaphthalen-1-yl)carbamate]
pIC50 [1]: 6.88
pIC50 [2]: 7.08

O=C(NC1CCCc2ccc(-c3cc(Cl)ccc3Cl)cc21)O[C@@H]1CN2CCC1CC2 (stereo partly drawn) [Example 71, (S)-quinuclidin-3-yl (7-(2,5-dichlorophenyl)-1,2,3,4-tetrahydronaphthalen-1-yl)carbamate]
pIC50 [1]: 7.02
pIC50 [2]: 7.64

O=C(NC1CCCc2ccc(-c3ccncc3)cc21)O[C@@H]1CN2CCC1CC2 (stereo partly drawn) [Example 72, (S)-quinuclidin-3-yl (7-(pyridin-4-yl)-1,2,3,4-tetrahydronaphthalen-1-yl)carbamate]
pIC50 [1]: 6.94
pIC50 [2]: 7.18

O=C(NC1CCCc2ccc(-c3cccnc3)cc21)O[C@@H]1CN2CCC1CC2 (stereo partly drawn) [Example 73, (S)-quinuclidin-3-yl (7-(pyridin-3-yl)-1,2,3,4-tetrahydronaphthalen-1-yl)carbamate]
pIC50 [1]: 6.23
pIC50 [2]: 6.44

Cc1ccccc1-c1ccc2c(c1)C(NC(=O)O[C@@H]1CN3CCC1CC3)CCC2 (stereo partly drawn) [Example 74, (S)-quinuclidin-3-yl (7-(o-tolyl)-1,2,3,4-tetrahydronaphthalen-1-yl)carbamate]
pIC50 [1]: 7.26
pIC50 [2]: 7.84

COc1ccccc1-c1ccc2c(c1)C(NC(=O)O[C@@H]1CN3CCC1CC3)CCC2 (stereo partly drawn) [Example 75, (S)-quinuclidin-3-yl (7-(2-methoxyphenyl)-1,2,3,4-tetrahydronaphthalen-1-yl)carbamate]
pIC50 [1]: 6.86
pIC50 [2]: 7.64

CCOc1ccccc1-c1ccc2c(c1)C(NC(=O)O[C@@H]1CN3CCC1CC3)CCC2 (stereo partly drawn) [Example 76, (S)-quinuclidin-3-yl (7-(2-ethoxyphenyl)-1,2,3,4-tetrahydronaphthalen-1-yl)carbamate]
pIC50 [1]: 6.81
pIC50 [2]: 7.73

COc1cccc(-c2ccc3c(c2)C(NC(=O)O[C@@H]2CN4CCC2CC4)CCC3)c1 (stereo partly drawn) [Example 77, (S)-quinuclidin-3-yl (7-(3-methoxyphenyl)-1,2,3,4-tetrahydronaphthalen-1-yl)carbamate]
pIC50 [1]: 6.71
pIC50 [2]: 7.13

CC(C)Oc1ccccc1-c1ccc2c(c1)C(NC(=O)O[C@@H]1CN3CCC1CC3)CCC2 (stereo partly drawn) [Example 78, (S)-quinuclidin-3-yl (7-(2-isopropoxyphenyl)-1,2,3,4-tetrahydronaphthalen-1-yl)carbamate]
pIC50 [1]: 6.64
pIC50 [2]: 7.52

COCCOc1ccc(-c2ccc3c(c2)C(NC(=O)O[C@@H]2CN4CCC2CC4)CCC3)cc1 (stereo partly drawn) [Example 79, (S)-quinuclidin-3-yl (7-(4-(2-methoxyethoxy)phenyl)-1,2,3,4-tetrahydronaphthalen-1-yl)carbamate]
pIC50 [1]: 7.18
pIC50 [2]: 7.89

COc1ccc(-c2ccc3c(c2)C(NC(=O)O[C@@H]2CN4CCC2CC4)CCC3)cc1 (stereo partly drawn) [Example 80, (S)-quinuclidin-3-yl (7-(4-methoxyphenyl)-1,2,3,4-tetrahydronaphthalen-1-yl)carbamate]
pIC50 [1]: 6.65
pIC50 [2]: 7.81

CCOc1ccc(-c2ccc3c(c2)C(NC(=O)O[C@@H]2CN4CCC2CC4)CCC3)cc1 (stereo partly drawn) [Example 81, (S)-quinuclidin-3-yl (7-(4-ethoxyphenyl)-1,2,3,4-tetrahydronaphthalen-1-yl)carbamate]
pIC50 [1]: 6.39
pIC50 [2]: 7.20

CCCOc1ccc(-c2ccc3c(c2)C(NC(=O)O[C@@H]2CN4CCC2CC4)CCC3)cc1 (stereo partly drawn) [Example 82, (S)-quinuclidin-3-yl (7-(4-propoxyphenyl)-1,2,3,4-tetrahydronaphthalen-1-yl)carbamate]
pIC50 [1]: 7.84
pIC50 [2]: 7.52

CC(C)Oc1ccc(-c2ccc3c(c2)C(NC(=O)O[C@@H]2CN4CCC2CC4)CCC3)cc1 (stereo partly drawn) [Example 83, (S)-quinuclidin-3-yl (7-(4-isopropoxyphenyl)-1,2,3,4-tetrahydronaphthalen-1-yl)carbamate]
pIC50 [1]: 6.41
pIC50 [2]: 7.41

O=C(NC1CCCc2ccc(-c3ccc4c(c3)OCO4)cc21)O[C@@H]1CN2CCC1CC2 (stereo partly drawn) [Example 84, (S)-quinuclidin-3-yl (7-(benzo[d]dioxol-5-yl)-1,2,3,4-tetrahydronaphthalen-1-yl)carbamate]
pIC50 [1]: 6.84
pIC50 [2]: 7.12

Cc1cccc(-c2ccc3c(c2)C(NC(=O)O[C@@H]2CN4CCC2CC4)CCC3)c1 (stereo partly drawn) [Example 85, (S)-quinuclidin-3-yl (7-(m-tolyl)-1,2,3,4-tetrahydronaphthalen-1-yl)carbamate]
pIC50 [1]: 6.72
pIC50 [2]: 7.13

CC1(C)CCc2cc(-c3ccc(F)cc3)ccc2C1NC(=O)O[C@@H]1CN2CCC1CC2 (stereo partly drawn) [Example 86, (S)-quinuclidin-3-yl (6-(4-fluorophenyl)-2,2-dimethyl-1,2,3,4-tetrahydronaphthalen-1-yl)carbamate]
pIC50 [1]: 7.85
pIC50 [2]: 8.59

CC1(C)CCc2cc(-c3ccc(Cl)cc3)ccc2C1NC(=O)O[C@@H]1CN2CCC1CC2 (stereo partly drawn) [Example 87, (S)-quinuclidin-3-yl (6-(4-chlorophenyl)-2,2-dimethyl-1,2,3,4-tetrahydronaphthalen-1-yl)carbamate]
pIC50 [1]: 7.71
pIC50 [2]: 8.22

CC1(C)CCc2cc(-c3ccc(C(F)(F)F)cc3)ccc2C1NC(=O)O[C@@H]1CN2CCC1CC2 (stereo partly drawn) [Example 88, (S)-quinuclidin-3-yl (2,2-dimethyl-6-(4-(trifluoromethyl)phenyl)-1,2,3,4-tetrahydronaphthalen-1-yl)carbamate]
pIC50 [1]: 7.95
pIC50 [2]: 8.46

CC1(C)CCc2cc(-c3ccc(OC(F)(F)F)cc3)ccc2C1NC(=O)O[C@@H]1CN2CCC1CC2 (stereo partly drawn) [Example 89, (S)-quinuclidin-3-yl (2,2-dimethyl-6-(4-(trifluoromethoxy)phenyl)-1,2,3,4-tetrahydronaphthalen-1-yl)carbamate]
pIC50 [1]: 8.11
pIC50 [2]: 8.66

CC1(C)CCc2cc(-c3cccc(F)c3)ccc2C1NC(=O)O[C@@H]1CN2CCC1CC2 (stereo partly drawn) [Example 90, (S)-quinuclidin-3-yl (6-(3-fluorophenyl)-2,2-dimethyl-1,2,3,4-tetrahydronaphthalen-1-yl)carbamate]
pIC50 [1]: 8.31
pIC50 [2]: 9.00

CC1(C)CCc2cc(-c3cccc(Cl)c3)ccc2C1NC(=O)O[C@@H]1CN2CCC1CC2 (stereo partly drawn) [Example 91, (S)-quinuclidin-3-yl (6-(3-chlorophenyl)-2,2-dimethyl-1,2,3,4-tetrahydronaphthalen-1-yl)carbamate]
pIC50 [1]: 8.54
pIC50 [2]: 9.09

CC1(C)CCc2cc(-c3cccc(C(F)(F)F)c3)ccc2C1NC(=O)O[C@@H]1CN2CCC1CC2 (stereo partly drawn) [Example 92, (S)-quinuclidin-3-yl (2,2-dimethyl-6-(3-(trifluoromethyl)phenyl)-1,2,3,4-tetrahydronaphthalen-1-yl)carbamate]
pIC50 [1]: 8.57
pIC50 [2]: 8.98

CC1(C)CCc2cc(-c3cccc(OC(F)(F)F)c3)ccc2C1NC(=O)O[C@@H]1CN2CCC1CC2 (stereo partly drawn) [Example 93, (S)-quinuclidin-3-yl (2,2-dimethyl-6-(3-(trifluoromethoxy)phenyl)-1,2,3,4-tetrahydronaphthalen-1-yl)carbamate]
pIC50 [1]: 9.41
pIC50 [2]: 8.75

CC1(C)CCc2cc(-c3ccccc3F)ccc2C1NC(=O)O[C@@H]1CN2CCC1CC2 (stereo partly drawn) [Example 94, (S)-quinuclidin-3-yl (6-(2-fluorophenyl)-2,2-dimethyl-1,2,3,4-tetrahydronaphthalen-1-yl)carbamate]
pIC50 [1]: 8.51
pIC50 [2]: 9.01

CC1(C)CCc2cc(-c3ccccc3Cl)ccc2C1NC(=O)O[C@@H]1CN2CCC1CC2 (stereo partly drawn) [Example 95, (S)-quinuclidin-3-yl (6-(2-chlorophenyl)-2,2-dimethyl-1,2,3,4-tetrahydronaphthalen-1-yl)carbamate]
pIC50 [1]: 9.91
pIC50 [2]: 9.07

CC1(C)CCc2cc(-c3ccccc3C(F)(F)F)ccc2C1NC(=O)O[C@@H]1CN2CCC1CC2 (stereo partly drawn) [Example 96, (S)-quinuclidin-3-yl (2,2-dimethyl-6-(2-(trifluoromethyl)phenyl)-1,2,3,4-tetrahydronaphthalen-1-yl)carbamate]
pIC50 [1]: 8.48
pIC50 [2]: 8.75

CC1(C)CCc2cc(-c3ccccc3OC(F)(F)F)ccc2C1NC(=O)O[C@@H]1CN2CCC1CC2 (stereo partly drawn) [Example 97, (S)-quinuclidin-3-yl (2,2-dimethyl-6-(2-(trifluoromethoxy)phenyl)-1,2,3,4-tetrahydronaphthalen-1-yl)carbamate]
pIC50 [1]: 8.86
pIC50 [2]: 9.07
